Test results from US11058680B2, “Combinations of opioid/TLR4 antagonists and acetaminophen for use in the treatment of emotional pain and insomnia” (Allodynic Threapeutics, LLC, priority 2016, dated 2021).

Columns and labels:
[1] = system: patient with lower back and leg pain and emotional pain due to separation from a child; assay: Example 12 case study, patient diary
[2] = Migraine open-label pilot study: side effects (AEs present) at each time point; assay type: in vivo, human
Procedure: The majority of the patients remained in the clinic for observation for 2 hours after dosing. […] Headache pain was assessed on a 4-point scale (0=none; 1=mild; 2=moderate; 3=severe). The assessment of photophobia, phonophobia, nausea, and neck/shoulder pain was assessed as present or absent. The assessment of emotional pain was recorded on a 4-point scale (0=none, 1=mild, 2=moderate, 3=severe). The assessment of difficulty sleeping or falling asleep (insomnia) was assessed on a 4-point scale (0=none, 1=mild, 2=moderate, 3=severe) at baseline, for the night before treatment and for the following nights at 24, and 48 hours. Patients recorded side effects severity at each time point. Patients recorded the time of the first rescue medication dose and all additional headache medications used within 48 hours. Patients were required to stay awake to record their assessments in the first 2 hours, sleeping was permitted thereafter. While asleep, assessments were completed according to patients' best estimation. For data analysis, it was assumed that a migraine attack is a unique patient. Patients were asked to specify (yes or no answer) to whether they experienced emotional pain symptoms such as: hurt feelings, sadness, fear, or anger. Patients who replied positively to having emotional pain were asked to specify the cause into one of the following options: relationship, work/school, money/debt, health, or loss/grief.

[3] = Ibuprofen 800 mg T.I.D. PRN 2006-2010, Naltrexone 2.25 mg Q.I.D./Clonidine 0.025 mg Q.I.D. 2010-2015, APAP 325 mg Q.I.D. Jun. 29-Jul. 6, 2015, Naltrexone 2.5 mg Q.I.D. to Jul. 8, 2015, Naltrexone 2.25 mg/APAP 325 mg Q.I.D. Jul. 9-Oct. 4, 2015

O=C1CC[C@@]2(O)[C@H]3Cc4ccc(O)c5c4[C@@]2(CCN3CC2CC2)[C@H]1O5 [naltrexone]
1 (11): AEs present ([2]; 15 min, NTX/APAP 2.25 mg/325 mg, NTX 2.25 mg) | AEs present ([2]; 30 min, NTX/APAP 2.25 mg/325 mg, NTX 2.25 mg) | AEs present ([2]; 1 h, NTX/APAP 2.25 mg/325 mg, NTX 2.25 mg)
0 (0): AEs present ([2]; 7 min, NTX/APAP 2.25 mg/325 mg, NTX 2.25 mg) | AEs present ([2]; 30 min, NTX/APAP […]325 mg, NTX 1.5 mg) | AEs present ([2]; 90 min, NTX/APAP 2.25 mg/325 mg, NTX 2.25 mg) | AEs present ([2]; 90 min, NTX/APAP […]325 mg, NTX 1.5 mg) | AEs present ([2]; 2 h, NTX/APAP 2.25 mg/325 mg, NTX 2.25 mg) | AEs present ([2]; 2 h, NTX/APAP […]325 mg, NTX 1.5 mg) | AEs present ([2]; 3 h, NTX/APAP 2.25 mg/325 mg, NTX 2.25 mg) | AEs present ([2]; 4 h, NTX/APAP 2.25 mg/325 mg, NTX 2.25 mg) | AEs present ([2]; 6 h, NTX/APAP 2.25 mg/325 mg, NTX 2.25 mg) | AEs present ([2]; 12 h, NTX/APAP 2.25 mg/325 mg, NTX 2.25 mg) | AEs present ([2]; 48 h, NTX/APAP 2.25 mg/325 mg, NTX 2.25 mg)
2 (66): AEs present ([2]; 30 min, NTX/APAP 3.25 mg/325 mg, NTX 3.25 mg)
3 (19): AEs present ([2]; 1 h, all doses combined)
1 (100): AEs present ([2]; 30 min, NTX/APAP 5 mg/325 mg, NTX 5 mg) | AEs present ([2]; 90 min, NTX/APAP 5 mg/325 mg, NTX 5 mg)
1 (16): AEs present ([2]; 7 min, all doses combined)
4 (25): AEs present ([2]; 30 min, all doses combined)
1: AEs present ([2]; 7 min, NTX/APAP 5 mg/325 mg, NTX 5 mg) | AEs present ([2]; 1 h, NTX/APAP 3.25 mg/325 mg, NTX 3.25 mg) | AEs present ([2]; 1 h, NTX/APAP 5 mg/325 mg, NTX 5 mg) | AEs present ([2]; 2 h, NTX/APAP 5 mg/325 mg, NTX 5 mg) | AEs present ([2]; 3 h, NTX/APAP 5 mg/325 mg, NTX 5 mg) | AEs present ([2]; 4 h, NTX/APAP 5 mg/325 mg, NTX 5 mg) | AEs present ([2]; 6 h, NTX/APAP 5 mg/325 mg, NTX 5 mg) | AEs present ([2]; 12 h, NTX/APAP 5 mg/325 mg, NTX 5 mg) | AEs present ([2]; 24 h, NTX/APAP 5 mg/325 mg, NTX 5 mg) | AEs present ([2]; 48 h, combined doses)
same level of emotional pain: emotional pain due to separation from child (patient report) ([1]; naltrexone/clonidine, acetaminophen 325 mg four times daily 5 days, naltrexone alone 12 days, naltrexone 2.25 mg and acetaminophen 325 mg four times daily almost three months)
5.5: PRSI, Pain Related Sleep Interference (0-10 NRS) [1, 3] | WEP, Worst Emotional Pain (0-10 NRS) [1, 3]
0: AEs present ([2]; 7 min, NTX/APAP 3.25 mg/325 mg, NTX 3.25 mg) | AEs present ([2]; 15 min, NTX/APAP 3.25 mg/325 mg, NTX 3.25 mg) | AEs present ([2]; 15 min, NTX/APAP 5 mg/325 mg, NTX 5 mg) | AEs present ([2]; 15 min, NTX/APAP […]325 mg, NTX 1.5 mg) | AEs present ([2]; 1 h, NTX/APAP […]325 mg, NTX 1.5 mg) | AEs present ([2]; 3 h, NTX/APAP […]325 mg, NTX 1.5 mg) | AEs present ([2]; 4 h, NTX/APAP […]325 mg, NTX 1.5 mg) | AEs present ([2]; 6 h, NTX/APAP […]325 mg, NTX 1.5 mg) | AEs present ([2]; 12 h, NTX/APAP […]325 mg, NTX 1.5 mg) | AEs present ([2]; 24 h, NTX/APAP 2.25 mg/325 mg, NTX 2.25 mg) | AEs present ([2]; 24 h, NTX/APAP […]325 mg, NTX 1.5 mg) | AEs present ([2]; 48 h, NTX/APAP 5 mg/325 mg, NTX 5 mg) | AEs present ([2]; 48 h, NTX/APAP […]325 mg, NTX 1.5 mg)
4: API, average pain intensity (0-10 NRS) [1, 3]
5: WPI, Worst Pain Intensity (0-10 NRS) [1, 3]
6: PGIC (1-7 Likert) ([1]; Naltrexone 2.25 mg Q.I.D./Clonidine 0.025 mg Q.I.D. 2010-2015, APAP 325 mg Q.I.D. Jun. 29-Jul. 6, 2015, Naltrexone 2.5 mg Q.I.D. to Jul. 8, 2015, Naltrexone 2.25 mg/APAP 325 mg Q.I.D. Jul. 9-Oct. 4, 2015)
1 (33): AEs present ([2]; 90 min, NTX/APAP 3.25 mg/325 mg, NTX 3.25 mg) | AEs present ([2]; 2 h, NTX/APAP 3.25 mg/325 mg, NTX 3.25 mg) | AEs present ([2]; 3 h, NTX/APAP 3.25 mg/325 mg, NTX 3.25 mg) | AEs present ([2]; 4 h, NTX/APAP 3.25 mg/325 mg, NTX 3.25 mg) | AEs present ([2]; 6 h, NTX/APAP 3.25 mg/325 mg, NTX 3.25 mg) | AEs present ([2]; 12 h, NTX/APAP 3.25 mg/325 mg, NTX 3.25 mg) | AEs present ([2]; 24 h, NTX/APAP 3.25 mg/325 mg, NTX 3.25 mg) | AEs present ([2]; 48 h, NTX/APAP 3.25 mg/325 mg, NTX 3.25 mg)
6.5: Insomnia (0-10 NRS) [1, 3]
2 (13): AEs present ([2]; 15 min, all doses combined) | AEs present ([2]; 90 min, all doses combined) | AEs present ([2]; 2 h, combined doses) | AEs present ([2]; 3 h, combined doses) | AEs present ([2]; 4 h, combined doses) | AEs present ([2]; 6 h, combined doses) | AEs present ([2]; 12 h, combined doses) | AEs present ([2]; 24 h, combined doses)
